Data reported in US20050256208A1, “Pharmaceutical composition containing bakuchiol for treating woman breast cancer” (Sinphar Pharmaceutical Co., Ltd., priority 2004, published 2005).
≈ marks a conversion by molar mass, not a printed value.

Columns and labels:
[1] = test system: five different human cancer cells: lung (A549), ovary (SK-OV-3), skin (SK-MEL-2), central nervous system (XF498), large intestine (HCT); settings: five human cancer cells A549, SK-OV-3, SK-MEL-2, XF498, HCT; Arch. Pharm. Res. 15, 356-359 (1992); cited from earlier work
[2] = test system: ovariectomized female Wistar rats (osteoporosis caused by estrogen deficiency); assay: Ovariectomized rat osteoporosis model, bone histomorphometry of proximal tibia; format: in vivo; settings: two months, mean value; for Erosion surface (ES/BS, %) of proximal tibia: OVX group 5.8%, Sham 4.7%; for Bone volume % (BV/TV) of proximal tibia head trabecular bone: OVX group 12.50%, Sham 29.50%
Text: The purpose of this example is to show the potency of bakuchiol in treating osteoporosis, wherein ovary of a female rat is removed to stimulate osteoporosis caused by estrogen deficiency. The female Wistar rats of 16 weeks old (unless specified in the other experiment description) were obtained from the stock reared by the Animal breeding center, National Scientific Council in Taipei. These rats were grouped by weights matched in order to distribute the physiological response variation from rats evenly into each group. These rats were grouping as follows: • Baseline group fed with no drug added food (n=8) • Sham operation group fed with no drug added food (Sham) (n=10) • Ovariectomy operation group fed with no drug added food (OVX) (n=8) • Ovariectomy operation group fed with Drug A (5 mg/kg) added food (OVX+A) (n=9) • Ovariectomy operation group fed with Drug B (15 mg/kg) added food (OVX+B) (n=9) Ovariectomy (removal of ovaries) operation: Ovariectomy was induced using a protocol similar to that described by Wronski et al (Wronski et al, Endocrinology, 123(2), 681-86 (1988)). During the experiments, the rats were housed in hanging grid cages in groups of two at 21° C. with a 12 hours dark cycle. Food (Rat-mouse diet III, adequate in 1% of calcium content and 1.2% of phosphate content, Purina, USA) was administered by paired feeding between the experimental and control groups. Pair-feeding was carried out by calculating the average amount of food intake in the Sham group. So give the same amount of food to the OVX, OVX+A (5 mg/kg), OVX+B (15 mg/kg) group animals the following day. These animals were fed with a period of two months except for the baseline group which were killed on the very day of doing ovariectomy or sham operation. Rats of OVX+A and OVX+B groups were fed with the usual food chuck but added certain amount of compound A and B in it respectively. Water was given ad libitum to all rats. The test drug was weighted according to dose of 5 mg/kg and 15 mg/kg, and added into the ususal food chuck powder and mixed with 10% starch paste. After fully mixed, these chuck powder were made into mass manually and dried by air flow oven. The food with added drug to rats was performed by single blind method. These labeling and bone histomorphometry assessment were done based on standard procedure in bone research (Lin et al, Calcif. Tissue Int., 67, 373-377 (2000)). Specimen were prestained with Villanueva bone stain, then […] and embedded in London resin. Undecalcified sections of 7 μm thick were cut using Jung-K microtome (Leica Ltd, USA) and treated with Villanueva stain for observation under light microscopy. Seven μm thick unstained sections were prepared for fluorescent microscopy and assessed with program Osteomeasure (3.0 version, Atlanta, USA). […]

[3] = test system: ovariectomized female Wistar rats (osteoporosis caused by estrogen deficiency); assay: Ovariectomized rat osteoporosis model, apparent bone density of tibia; format: in vivo; settings: two months, mean value, OVX group 1.549, Sham 1.589
Text: The purpose of this example is to show the potency of bakuchiol in treating osteoporosis, wherein ovary of a female rat is removed to stimulate osteoporosis caused by estrogen deficiency.
The female Wistar rats of 16 weeks old (unless specified in the other experiment description) were obtained from the stock reared by the Animal breeding center, National Scientific Council in Taipei. These rats were grouped by weights matched in order to distribute the physiological response variation from rats evenly into each group. These rats were grouping as follows: • Baseline group fed with no drug added food (n=8) • Sham operation group fed with no drug added food (Sham) (n=10) • Ovariectomy operation group fed with no drug added food (OVX) (n=8) • Ovariectomy operation group fed with Drug A (5 mg/kg) added food (OVX+A) (n=9) • Ovariectomy operation group fed with Drug B (15 mg/kg) added food (OVX+B) (n=9)
Ovariectomy (removal of ovaries) operation: Ovariectomy was induced using a protocol similar to that described by Wronski et al (Wronski et al, Endocrinology, 123(2), 681-86 (1988)). […]
The whole tibia and femur were stripped off attached muscles and ligaments after sacrifice. […] The weight of bone measured in the air was marked as W-air. […] The apparent bone density was calculated as [W-air/(W-air minus W-water)] […]

[4] = test system: human breast cancer cell line MDA-MB231 (estrogen receptor negative); assay: In vitro cytotoxicity assay (CCK-8), MDA-MB231; format: cell-based; settings: MDA-MB-231, MDA-MB231 cells, 48 hours incubation, read-out: 50% inhibition of cell growth concentration (IC50)
Text: (§1) Materials: DMEM (medium), RPMI (medium), L-glutamine, penicillin, streptomycin and FBS (fetal bovine serum) were obtained from Gibco (NY, USA). Culture plasticware was purchased from Corning (MA, USA). […] All other chemicals used were of reagent grade and were purchased from Sigma or E. Merck (Germany).
(§2) Cell lines and cell cultures: The human breast cancer cell lines T47D and MDA-MB231 were obtained from American Type Culture Collection (ATCC). Of both cancer cells, T47D is estrogen receptor positive, and MDA-MB231 is estrogen receptor negative. Cells were cultured at 37° C. in RPMI medium containing 10% charcoal-dextran stripped fetal bovine serum for T47D cells and in DMEM medium containing 10% charcoal-dextran stripped fetal bovine serum for MDA-MB231 cells with 5% CO2. The cell proliferation was determined by counting the viable cells with trypan blue exclusion.
(§3) Cytotoxicity assay: Dispense 198 μl of cell suspension (20,000 cells for T47D per well and 10,000 cell for MDA-MB231 per well) in a 96-well plate and pre-incubate the plate for 24 hours in an incubator at 37° C. with humidified 5% CO2. […] After plate was incubated for 48 hours in the incubator, media were aspirated of and new media (100 μl) were added and incubated for 1 more hour. […] Measure the absorbance at 450 nm using a ELISA reader.

[5] = test system: human breast cancer cell line T47D (estrogen receptor positive); assay: In vitro cytotoxicity assay (CCK-8), T47D; format: cell-based; settings: T47D cells, 48 hours incubation, read-out: 50% inhibition of cell growth concentration (IC50)
Text: as §1, §2, §3

[6] = OVX + B group, 15 mg/kg in food

For C=C[C@@](C)(/C=C/c1ccc(O)cc1)CCC=C(C)C [Bakuchiol, bakuchiol], the “average inhibitory concentration (IC50)” value [1] is listed as 10˜15 μg/cc, the “Erosion surface (ES/BS, %) of proximal tibia” value ([2]; OVX + A group, 5 mg/kg in food) is listed as 5.0% and the “Bone volume % (BV/TV) of proximal tibia head trabecular bone” value ([2]; OVX + A group, 5 mg/kg in food) is listed as 19.80%. For the same compound, the “Erosion surface (ES/BS, %) of proximal tibia” value [2, 6] was 4.8%, the “Bone volume % (BV/TV) of proximal tibia head trabecular bone” value [2, 6] was 20.11% and the “Bone apparent density of tibia” value ([3]; OVX + A group, 5 mg/kg in food) was 1.582 gm/cm^3. For the same compound, the “Bone apparent density of tibia” value [3, 6] was 1.587 gm/cm^3, the IC50 [4] was 0.62 µg/mL (≈ 2.42 µM) and the IC50 [5] was 5 µg/mL (≈ 19.5 µM).
